Data as given in patent US20120202892A1, “Cannabinoid-Containing Compositions and Methods for Their Use” (University of Kentucky Research Foundation, priority 2008, published 2012).
“And” between values parts separate entries of the source, which are not always exact repeats. Equal values may be shown once. “Also recorded” adds a separate entry of the source. Read-outs that look alike come from different tables or passages of the source. Marks after values point to notes of the source that are not given here.

Assays:
[1] = tested on: CFA-induced knee joint inflammation; assay: Knee joint circumference in CFA mono-arthritic rats; format: in vivo, Sprague-Dawley rats
[2] = tested on: CFA-induced mono-arthritis, secondary thermal hyperalgesia; assay: Secondary thermal hyperalgesia, paw withdrawal latency (PWL) test; format: in vivo, Sprague-Dawley rats; settings: for Paw withdrawal latency (PWL), own baseline score: baseline before CFA and CBD
Protocol: Secondary thermal hyperalgesia was assessed with the paw withdrawal latency (PWL) test (Hargreaves et al. (1988) Pain 32: 77-88). PWLs were measured in response to a radiant heat source shone on one hind paw of the animals from beneath a glass top table. A shortened PWL response in animals with knee joint inflammation was indicative of secondary thermal hyperalgesia. Animals were placed in separate plastic cubicles (4×4×10 in) on a glass top table (2 mm thickness of glass) and allowed to adapt to their new environment for 20-30 min before testing. A small movable metal box that focused a high-intensity light beam through an aperture (0.5 cm×0.5 cm) was attached to an on/off switch and a digital timer. The light beam was applied to the plantar surface of the hind paw through the glass until the rat lifted its paw. At that time, the light is switched off and the number of seconds on the digital timer recorded as the PWL (sec). The maximal cut off time for the paw-withdrawal reflex was set to 15 sec (55° C.). […] Both hind paws were tested independently for 5 trials per side with 5-minute intervals between trials. A mean of the 5 trials was calculated for each animal. The PWL tests were performed before knee joint injection as a baseline and 5 times after the CFA injection beginning on day 3 (days 3-7). The examiner was blind from the treatment group of animals.
(§1) Baseline parameters (body weight, knee joint temperature, and knee joint circumference) were obtained before the knee injection of rats with CFA. PWL test and exploratory activity testing were also conducted prior to CFA injection. Rats were anesthetized with a short term anesthetic and the left knee joint, cavity was injected with CFA for induction of mono-arthritis. On day 3, the back of each animal was shaved. […] Rats received daily treatments for four consecutive days of either vehicle gel, or CBD gel. Gel was applied to the skin in a templated region on the dorsal surface of the rat and rubbed into the skin for 30 sec to ensure complete coverage. The nitrile template was used to ensure specific area reproducibility. The PWL test was conducted 4 h after gel application. Exploratory activity was monitored prior to initial gel application and on the third day post gel application (after 6 h). On the final day of gel application after the body and knee joint parameters were obtained and PWL test was conducted, rats were cuthanized by pentobarbital overdose. Blood samples were obtained for CBD plasma quantification, and tissues (knee joints, dorsal root ganglia, spinal cord, brain) were collected after perfusion.
Half of the treated rats were injected with the CFA in the knee joint. Within each group of rats, half received vehicle gel without CBD and the other half received the gel CBD. Four different doses were tested in the rats, 0.6 mg/d, 3.1 mg/d, 6.2 mg/d, or 62.3 mg/d. […] A two-fold lower dose and a ten-fold lower/higher dose (3.1 mg/d, 0.6 mg/d, and 62.3 mg/d) were also investigated. Area of application, amount of gel, and/or concentration of gel was adjusted to achieve the desired doses.

[3] = tested on: CFA-induced mono-arthritis pain; assay: Pain-related posture (spontaneous pain rating score 0-5); format: in vivo, Sprague-Dawley rats; settings: after CFA, before CBD gel
Description: The abnormal posture of the affected hind limb of each animal was assigned a single score using a subjective pain-related behavioral scale (spontaneous pain rating score 0-5), i.e. 0—normal; 1—curling of the toes, 2—eversion of the paw; 3—partial weight bearing; 4—non-weight bearing and guarding; and 5—avoidance of any contact with the hindlimb (Sluka et al. (1994) Neuroreport 5:109-112).
as §1, with “The PWL test was conducted 4 h after gel application.” left out, “On the final day of gel application after the body and knee joint parameters were obtained and PWL test was conducted, rats were cuthanized by pentobarbital overdose.” left out, “perfusion. […]” for “perfusion.”

[4] = tested on: CFA intraplantar injection; settings: rats, 20 mg/kg oral, 7 consecutive days; cited from earlier work
[5] = Plasma CBD concentration after topical gel application (LC/MS); format: in vivo, Sprague-Dawley rats; settings: rats
Protocol: as §1
50 μL aliquot of plasma collected from cannabidiol dosed rats was added to a siliconized microcentrifuge tube containing 500 μL of 1:1 ACN:ethyl acetate. The plasma/ACN:ethyl acetate sample was vortexed for 30 sec and centrifuged at 10,000×g for 20 min. The supernatant was removed and placed into a clean silanized culture tube and evaporated under nitrogen in a 37° C. water bath. The dried sample was reconstituted with 100 μL of ACN and vortexed for 30 sec, then sonicated for 5 min. […] Standards were prepared by spiking blank plasma samples with respective standard concentrations and extracting the standards similarly to the collected plasma samples.
The LC/MS system used to analyze samples was comprised of a Waters Alliance 2695 pump and autosampler, a Micromass™ ZQ detector, and 996 photodiode array detector with MassLynx™ software (Waters Corp., Milford, Mass.). A Symmetry™ C18 column (150×2.1 mm, 5 μm) with a Sentry Symmetry™ guard column (10×2.1 mm, 3.5 μm) was used with the LC/MS system. The ZQ detector was used with an electrospray ionization (ESI) probe set for single ion monitoring (SIM) for cannabidiol quantification. Analysis was performed in negative mode for m/z 313 [CBD-H]^− (dwell time: 30 sec). Capillary and cone voltage were set at […] and 40 V, respectively. Source block and desolvation temperatures were set at 120° C. and 250° C., respectively. Nitrogen produced from the Nitroflow Lab (Parker Hannifin Corp; Cleveland, Ohio) was used as nebulization and drying gas flow rates of 50 and 450 L/h, respectively. […]

[6] = tested on: CFA-induced knee joint inflammation; assay: Knee joint temperature in CFA mono-arthritic rats; format: in vivo, Sprague-Dawley rats
[7] = tested on: collagen-induced arthritis; settings: mice, cited from earlier work
[8] = tested on: carrageenan-induced paw edema; settings: cited from earlier work
[9] = tested on: normal (non-CFA) rats; assay: Open field exploratory behavioral activity; format: in vivo, Sprague-Dawley rats
Protocol: Exploratory behavioral activity of the rats was monitored using the Flexfield Animal Activity System (San Diego Instruments; San Diego, Calif.) with a Photobeam Activity System software coupled to a computer according to previously published methods by Zhang et al., (2004) Pharmacol Biochem Behav 77: 145-153. Briefly, six main parameters were recorded: rearing events and rearing time, active time, and resting time, total activity (i.e. number of photobeams disturbed in the x-y-z planes while the rat was moving around in the box or involved in stationary movement such as grooming), and distance traveled. Activity testing was conducted in an isolated, temperature controlled area at similar times daily in order to provide consistent results.
as §1

[10] = biological target: CB2 receptor (Homo sapiens, UniProt P34972); settings: cited from earlier work
Sequence of CB2 receptor (P34972 whole entry): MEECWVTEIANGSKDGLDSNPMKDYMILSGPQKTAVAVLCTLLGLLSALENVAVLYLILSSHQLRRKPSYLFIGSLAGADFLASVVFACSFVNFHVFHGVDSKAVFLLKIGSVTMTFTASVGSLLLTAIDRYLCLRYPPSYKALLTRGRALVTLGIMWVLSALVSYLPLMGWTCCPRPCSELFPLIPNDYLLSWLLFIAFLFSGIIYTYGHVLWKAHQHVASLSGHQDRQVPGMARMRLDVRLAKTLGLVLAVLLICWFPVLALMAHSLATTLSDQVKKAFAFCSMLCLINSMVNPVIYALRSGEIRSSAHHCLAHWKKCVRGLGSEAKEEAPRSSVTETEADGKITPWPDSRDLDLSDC

[11] = in vivo; cited from earlier work
[12] = 0.6 mg/d group, after CFA, before CBD gel
[13] = 3.1 mg/d group, after CFA, before CBD gel
[14] = 3.1 mg/d transdermal CBD gel, Post-CBD, day 4
[15] = 6.2 mg/d group, after CFA, before CBD gel
[16] = 62.3 mg/d group, after CFA, before CBD gel
[17] = CFA + CBD group, baseline before CFA and before CBD

C=C(C)C1CCC(C)=CC1c1c(O)cc(CCCCC)cc1O (stereo not drawn) [CBD, 2-[3-methyl-6-(1-methylethenyl)-2-cyclohexen-1-yl]-5-pentyl-1,3-benzenedi-ol]
Knee joint circumference [mean ± SD] [1, 12]: 7.5 ± 0.3^b cm | Knee joint circumference [mean ± SD] ([1]; 0.6 mg/d transdermal CBD gel, Post-CBD, four consecutive days (day 4)): 7.0 ± 0.3^b cm | Knee joint circumference [mean ± SD] [1, 13]: 7.4 ± 0.4^b cm | Knee joint circumference [mean ± SD] [1, 14]: 7.1 ± 0.3^b cm | Knee joint circumference [mean ± SD] [1, 15]: 7.2 ± 0.3^b cm | Knee joint circumference [mean ± SD] ([1]; 6.2 mg/d transdermal CBD gel, Post-CBD, day 4, p<0.05 vs vehicle gel): 6.6±0.2 cm and 6.6 ± 0.2^b* cm | Knee joint circumference [mean ± SD] [1, 16]: 7.2 ± 0.0^a cm | Knee joint circumference [mean ± SD] ([1]; 62.3 mg/d transdermal CBD gel, Post-CBD, day 4, p<0.05 vs vehicle gel): 6.6±0.1 cm and 6.6 ± 0.1^a* cm | Knee joint circumference [mean ± SD] [1, 17]: 5.7±0.2 cm and 5.7 ± 0.2^c cm | Optimal treatment dose for knee inflammation ([1]; transdermal gel, no further improvement with 62.3 mg/d): 6.2 mg/day | Paw withdrawal latency (PWL), own baseline score ([2]; 6.2 mg/d group): 10.9 ± 0.3 s | Paw withdrawal latency (PWL), own baseline score ([2]; 62.3 mg/d group): 9.3 ± 0.3 s | Paw withdrawal latency (PWL) ([2]; CFA rats, 0.6 mg/d CBD gel, day 2 of application, 4 h after application): 7.8 ± 0.5 s | Improvement of PWL scores ([2]; CFA rats, 0.6 mg/d and 3.1 mg/d CBD, day 4): did not have improved PWL scores | Paw withdrawal latency (PWL) ([2]; CFA rats, 3.1 mg/d CBD gel, day 2 of application): 7.6 ± 0.8 s | Paw withdrawal latency (PWL) ([2]; CFA rats, 6.2 mg/d CBD gel, day 2 of application, p<0.05 vs vehicle gel): 9.2 ± 0.7 s | Paw withdrawal latency (PWL) ([2]; CFA rats, 6.2 mg/d CBD gel, day 4): 9.2 ± 0.3 s | Change in PWL vs CFA rats receiving vehicle gel ([2]; CFA rats, 6.2 mg/d, 4 h (d 1) post CBD dosing, p<0.05): improvement | Paw withdrawal latency (PWL) ([2]; CFA rats, 62.3 mg/d CBD gel, day 2 of application, p<0.05 vs vehicle gel): 9.1 ± 0.2 s | Paw withdrawal latency (PWL) ([2]; CFA rats, 62.3 mg/d CBD gel, day 4): 9.3 ± 0.2 s | Paw withdrawal latency (PWL) ([2]; normal controls, 6.2 mg/d CBD gel, day 4): 10.6 ± 0.3 s | Paw withdrawal latency (PWL) ([2]; normal rats, 0.6 mg/d CBD gel, day 2): 9.9 ± 0.2 s | Paw withdrawal latency (PWL) ([2]; normal rats, 3.1 mg/d CBD gel, day 2): 9.9 ± 0.3 s | Paw withdrawal latency (PWL) ([2]; normal rats, 6.2 mg/d CBD gel, day 2): 10.1 ± 0.9 s | Effect on PWL in normal rats ([2]; normal rats, any CBD dose (0.6, 3.1, 6.2 mg/d)): not affected; also recorded: no effect | Spontaneous pain rating scores [mean ± SD] ([3]; 0.6 mg/d group): 4.0 ± 0.0^b | Spontaneous pain rating scores [mean ± SD] ([3]; 3.1 mg/d group): 4.0 ± 0.0^b | Decrease in thermal and mechanical withdrawal latency [4]: 50% | Plasma CBD concentration ([5]; topical gel 0.6 mg/d, four consecutive days): 3.8 ± 1.4 ng/mL | Plasma CBD concentration ([5]; topical gel 3.1 mg/d): 17.5 ± 4.4 ng/mL | Plasma CBD concentration ([5]; topical gel 6.2 mg/d): 33.3 ± 9.7 ng/mL | Plasma CBD concentration ([5]; topical gel 62.3 mg/d (10% w/w gel), not in linear profile): 1,629.9±379.0 ng/mL | Knee joint temperature [mean ± SD] [6, 12]: 31.7 ± 1.7^b ° C. | Knee joint temperature [mean ± SD] ([6]; 0.6 mg/d transdermal CBD gel, Post-CBD, day 4): 31.2 ± 0.7^b ° C. | Knee joint temperature [mean ± SD] [6, 13]: 30.8 ± 0.9^b ° C. | Knee joint temperature [mean ± SD] [6, 14]: 30.6 ± 0.6^b ° C. | Knee joint temperature [mean ± SD] [6, 15]: 32.1 ± 1.8^b ° C. | Knee joint temperature [mean ± SD] ([6]; 6.2 mg/d transdermal CBD gel, Post-CBD, day 4): 31.7 ± 2.1^b ° C. | Knee joint temperature [mean ± SD] [6, 16]: 34.1 ± 0.8^a ° C. | Knee joint temperature [mean ± SD] ([6]; 62.3 mg/d transdermal CBD gel, Post-CBD, day 4): 30.2 ± 0.9^a ° C. | Difference in knee joint temperature among the treatment groups ([6]; CBD gel doses vs vehicle gel, p>0.05): No knee joint temperature differences; also recorded: no significant differences | Knee joint temperature [mean ± SD] [6, 17]: 33.4 ± 0.2^a ° C. | Therapeutic action on established CIA ([7]; administered systemically (ip and oral)): beneficial therapeutic action | Optimal dose for arthritis suppression ([7]; i.p. (2.5, 5, 10, 20 mg/kg tested)): 5 mg/kg | Optimal dose for arthritis suppression ([7]; oral (10, 25, 50 mg/kg tested)): 25 mg/kg | Effect on hyperalgesia (PWL) ([8]; mice, 5 and 7.5 mg/kg oral, by 6 h): eliminated hyperalgesia | Effect on hyperalgesia (PWL) ([8]; mice, 10, 20 and 40 mg/kg oral, 3 h post carrageenan): elimination of hyperalgesia | Distance traveled ([9]; 0.6 mg/d CBD gel, post-dose, p<0.05 vs pre-dose): 1757.1±299.2 cm | Distance traveled ([9]; 0.6 mg/d group, pre-dose): 2245.5±367.4 cm | Rearing events ([9]; 3.1 mg/d group, pre-dose): 284.0±31.1 | Rearing time ([9]; 3.1 mg/d group, pre-dose): 189.1±20.7 | Exploratory activity, six parameters (rearing events, rearing time, total beams broken, distance traveled, active time, resting time) ([9]; among dose groups and pre- vs post-dose, p>0.05, exception distance traveled at 0.6 mg/d): No significant (p>0.05) differences | Binding affinity for CB2 receptor [10]: little binding affinity

CCCCCc1cc(O)c2c(c1)OC(C)(C)[C@@H]1CCC(C)=C[C@@H]21 [THC, Δ^9-tetrahydrocannabinol]
Side effects caused [11]: hypothermia and hypomobility
